Molecular target: T1, SHC-transforming protein 2 (Homo sapiens, UniProt P98077)
T1 sequence (P98077 whole entry): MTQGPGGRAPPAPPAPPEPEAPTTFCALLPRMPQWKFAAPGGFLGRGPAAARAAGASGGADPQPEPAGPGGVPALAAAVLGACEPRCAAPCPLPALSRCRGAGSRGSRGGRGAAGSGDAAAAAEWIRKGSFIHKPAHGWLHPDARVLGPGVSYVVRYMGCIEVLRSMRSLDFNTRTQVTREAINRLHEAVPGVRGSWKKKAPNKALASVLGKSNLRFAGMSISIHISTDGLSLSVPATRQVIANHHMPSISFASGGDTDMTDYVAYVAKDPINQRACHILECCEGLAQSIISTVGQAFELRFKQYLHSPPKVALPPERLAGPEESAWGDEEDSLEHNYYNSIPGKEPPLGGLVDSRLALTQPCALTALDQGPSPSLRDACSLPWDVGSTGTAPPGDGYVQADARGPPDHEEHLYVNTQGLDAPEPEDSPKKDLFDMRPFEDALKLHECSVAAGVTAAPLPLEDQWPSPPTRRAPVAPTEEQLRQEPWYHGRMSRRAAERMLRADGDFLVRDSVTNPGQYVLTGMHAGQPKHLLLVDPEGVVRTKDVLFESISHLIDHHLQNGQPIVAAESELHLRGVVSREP
Test: Inhibition of binding to SH2 domain of SHC-PTB

IC50: > 5 µM
SMILES: NC(=O)CC(NC(=O)C1(NC(=O)C(N)Cc2ccc(OP(=O)(O)O)c(N)c2)CCCCC1)C(N)=O (stereo unspecified) [Phosphoric acid mono-(2-amino-4-{2-amino-2-[1-(1,2-dicarbamoyl-ethylcarbamoyl)-cyclohexylcarbamoyl]-ethyl}-phenyl) ester]
